Laboratory results reported in US7879866B2, “Inhibition of the activity of the capsaicin receptor in the treatment of obesity or obesity-related diseases and disorders” (Dorte Xenia Gram, priority 2004, dated 2011).

Tests used:
[1] = test system: F4/80; assay: Relative gene expression of F4/80 in mesenteric adipose tissue (quantitative RT-PCR); type: in vivo, rat; conditions: 9 month old Zucker obese rats; 1 hour after BCTC 15 mg/kg po; vehicle as calibrator, 36B4 internal standard
Protocol: (§1) At 9 months of age, the same rats were tested re. mesenteric inflammatory mediators. The rats were fasted for 18 hours where after they were given BCTC at 15 mg/kg (n=10) or vehicle (n=9) orally by gavage. One hour after treatment, the rats were anaesthetized in isoflurane and decapitated. The mesenteric adipose tissue was quickly removed and transferred to 10× volume pre-chilled RNAlater (Sigma-Aldrich, USA) and stored at −20° C. To prevent area to area effect on gene expressions patterns, 0, 5-1 g tissue was homogenized in TRIzol Reagent (1 ml/100 mg tissue) (TRIzol; Invitrogen Corp.). […] PCR amplification mixtures (25 μl) contained 12.5 μl of 2× Platinum Quantitative PCR SuperMix-UDG (Invitrogen Corp.), 0.625 μl of reverse primer (20 μM), 0.625 μl forward primers (20 μM), 0.625 μl Probe (10 μM) (ProbeLibrary Exiqon A/S, Denmark) and 5 μl diluted cDNA template. Real-time quantitative PCR was carried out using MX3000P PCR machine (Stratagene, USA) with the following cycling parameters: polymerase activation for 10 minutes at 95° C. and amplification for 40 cycles of 30 seconds at 95° C. and 60 seconds at 60° C. […]
(§2) Relative gene expression of iNOS and F4/80 were determined by quantitative RT-PCR comparative Ct method (Applied Biosystems. User Bulletin #2. ABI PRISM 7700 sequence detection system, 1997) using vehicle as calibrator. […]

[2] = biological target: T1, capsaicin receptor (Rattus norvegicus, UniProt O35433); conditions: literature refs 22, 23; cited from earlier work
T1 construct: host or cells: whole animal (in vivo pain models)

[3] = test system: male Zucker obese rats; assay: Oral glucose tolerance test (OGTT) and glucose stimulated insulin secretion after oral BCTC; type: in vivo, rat; conditions: 6 month old male Zucker obese rats; BCTC 15 mg/kg p.o. at -30 min; glucose 2 g/kg po at time 0; vs vehicle
Source text: Laboratory animals: Male (n=19) Zucker obese rats were purchased from Charles River Laboratories, U.S. The rats were transported to Denmark at the age of 6 weeks and were kept under ambient controlled conditions on a normal day light cycle (lights on at 6 am, lights off at 6 pm) at the Måløv Animal Unit at Novo Nordisk A/S, Denmark from then and until the age of 9 month of age. The rats were kept in groups of 3 rats per cage until the end of the experiment in standard cages (Eurostandard Type IV, Techniplast, Scanbur, Denmark) and were given free access to acidified (0.4% citric acid) tap water and standard chow (Altromin, Brogaarden Aps, Denmark). The cages were supplied with wooden wool (Brogaarden, Denmark) as nesting material and the bedding material was aspen chips (Brogaarden, Denmark), changed twice per week as was the bottles of acidified water.
At 6 month of age, an OGTT was performed shortly after administering a capsaicin receptor antagonist (BCTC) orally. […] Fasting blood glucose and plasma insulin was determined as described below. […] The rats were left in the cage until time 0 where blood glucose was assessed followed by the OGTT. […] Blood glucose and plasma insulin was determined at time 30, 60 and 120 min after glucose. […] Following the experiment, glucose was determined using the glucose oxidase method (EBIO, Eppendorf, Germany). […]

[4] = test system: iNOS; assay: Relative gene expression of iNOS in mesenteric adipose tissue (quantitative RT-PCR); type: in vivo, rat; conditions: 9 month old Zucker obese rats; 1 hour after BCTC 15 mg/kg po; vehicle as calibrator, 36B4 internal standard
Protocol: as §1, §2

T1 sequence (O35433 whole entry): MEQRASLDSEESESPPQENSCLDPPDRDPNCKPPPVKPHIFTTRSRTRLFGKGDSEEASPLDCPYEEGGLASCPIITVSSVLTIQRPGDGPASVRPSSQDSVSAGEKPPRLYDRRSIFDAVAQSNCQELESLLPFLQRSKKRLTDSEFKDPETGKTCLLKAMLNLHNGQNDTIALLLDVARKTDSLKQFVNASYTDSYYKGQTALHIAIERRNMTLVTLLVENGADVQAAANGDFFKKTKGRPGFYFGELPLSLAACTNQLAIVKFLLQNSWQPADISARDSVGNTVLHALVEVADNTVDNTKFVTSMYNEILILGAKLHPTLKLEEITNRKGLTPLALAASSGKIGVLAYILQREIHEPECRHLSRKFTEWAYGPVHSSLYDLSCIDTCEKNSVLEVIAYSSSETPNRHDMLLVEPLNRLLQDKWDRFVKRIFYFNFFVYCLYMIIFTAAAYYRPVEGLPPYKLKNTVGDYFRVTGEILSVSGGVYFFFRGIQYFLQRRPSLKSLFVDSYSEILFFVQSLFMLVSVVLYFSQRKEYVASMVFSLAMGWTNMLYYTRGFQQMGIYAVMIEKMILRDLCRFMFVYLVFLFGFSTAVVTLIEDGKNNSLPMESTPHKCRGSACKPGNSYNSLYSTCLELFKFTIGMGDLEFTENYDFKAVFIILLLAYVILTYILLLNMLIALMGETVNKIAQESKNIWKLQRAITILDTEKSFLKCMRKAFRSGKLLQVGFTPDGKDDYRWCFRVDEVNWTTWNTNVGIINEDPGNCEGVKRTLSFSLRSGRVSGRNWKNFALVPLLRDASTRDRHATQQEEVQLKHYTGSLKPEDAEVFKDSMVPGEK

SMILES: CC(C)(C)c1ccc(NC(=O)N2CCN(c3ncccc3Cl)CC2)cc1 [BCTC, N-(4-tertiarybutylphenyl)-4-(3-chloropyridin-2-yl)tetrahydropyrazine-1(2H)-carbox-amide]
- gene expression of F4/80 in mesenteric adipose tissue [1]: significantly lower level
- inhibiting capsaicin-mediated hyperalgesia, inflammatory hyperalgesia or allodynia, and hyperalgesia after nerve injury [2]: shown effective
- blood glucose after oral glucose tolerance test [3]: diminished rise in blood glucose
- plasma insulin after oral glucose load (glucose stimulated insulin response) [3]: considerable higher levels of insulin in plasma
- gene expression of iNOS in mesenteric adipose tissue [4]: significantly lower level
